{
  "source": "patent US20100311741A1",
  "about": "“Bicyclosulfonyl Acid (BCSA) Compounds and Their Use as Therapeutic Agents” (INHIBOX LTD., priority 2007, published 2010)",
  "key": {"[1]": {"system": "HDAC (HeLa cell extract)", "assay": "Selectivity assay: HDAC activity, fluorescent assay (Fluor de Lys)", "type": "biochemical", "conditions": "single concentration @100 (μM)", "method": "Alternatively, the activity of the compounds as HDAC inhibitors was determined using a commercially available fluorescent assay kit (Fluor de Lys™, BioMol Research Labs, Inc., Plymouth Meeting, USA). HeLa extract was incubated for 1 hour at 37° C. in assay buffer (25 mM HEPES, 137 mM NaCl, 2.7 mM KCl, 1 mM MgCl2, pH 8.0) with 15 μM acetylated substrate in the presence of test compound (HDAC inhibitor). The extent of deacetylation was determined by the addition of 50 μL of a 1-in-500 dilution of Developer, and subsequent measurement of the fluorescence (excitation 355 nm, emission 460 nm), according to the instructions provided with the kit.\nThe HeLa cell extract was made from HeLa cells (ATCC Ref. No. CCL-2) by freeze-thawing three times in 60 mM Tris.HCl, pH 8.0, 450 mM NaCl, 30% glycerol. Two cell volumes of extraction buffer were used, and particulate material was centrifuged out (20,800 g, 4° C., 10 minutes). The supernatant extract having deacetylase activity was aliquoted and frozen for storage.\nPercent activity (% activity) for each test compound was calculated as:\n% activity={(S^C−B)/(S^o−B)}×100\nwherein S^C denotes signal measured in the presence of enzyme and the compound being tested, S^o denotes signal measured in the presence of enzyme but in the absence of the compound being tested, and B denotes the background signal measured in the absence of both enzyme and compound being tested. The IC50 corresponds to the concentration which achieves 50% activity."}, "[2]": {"biological_target": "MMP-8 (Homo sapiens, UniProt P22894)", "sequence (P22894 101-467, species assumed)": "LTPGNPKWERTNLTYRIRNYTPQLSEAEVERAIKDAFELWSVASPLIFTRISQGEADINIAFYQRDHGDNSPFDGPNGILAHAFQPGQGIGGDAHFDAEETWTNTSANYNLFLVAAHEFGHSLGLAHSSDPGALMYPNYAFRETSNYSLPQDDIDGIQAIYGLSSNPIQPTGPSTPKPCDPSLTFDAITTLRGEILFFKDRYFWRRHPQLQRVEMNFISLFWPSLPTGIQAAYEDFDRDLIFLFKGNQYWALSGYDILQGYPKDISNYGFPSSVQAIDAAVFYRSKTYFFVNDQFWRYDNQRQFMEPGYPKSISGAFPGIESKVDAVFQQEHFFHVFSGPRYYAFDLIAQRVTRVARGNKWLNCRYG", "assay": "Matrix metalloprotease panel, single concentration", "type": "biochemical", "method": "(§1) Several compounds were tested at a single concentration against a panel of matrix metalloproteases including angiotensin converting enzyme (ACE) and the percentage inhibition determined."}, "[3]": {"biological_target": "MMP-12 (Homo sapiens, UniProt P39900)", "sequence (P39900 106-470, species assumed)": "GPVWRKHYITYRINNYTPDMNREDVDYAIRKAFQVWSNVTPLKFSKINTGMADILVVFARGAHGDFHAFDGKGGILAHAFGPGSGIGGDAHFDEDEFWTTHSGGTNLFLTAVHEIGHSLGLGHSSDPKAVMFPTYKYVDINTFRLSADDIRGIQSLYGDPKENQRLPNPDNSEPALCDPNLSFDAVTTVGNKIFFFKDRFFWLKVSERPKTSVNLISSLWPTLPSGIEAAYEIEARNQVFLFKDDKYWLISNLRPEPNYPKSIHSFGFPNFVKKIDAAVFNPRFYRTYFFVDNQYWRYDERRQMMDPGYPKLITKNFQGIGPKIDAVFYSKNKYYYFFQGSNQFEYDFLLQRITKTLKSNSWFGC", "assay": "Matrix metalloprotease panel, single concentration", "type": "biochemical", "method": "as §1"}, "[4]": {"biological_target": "angiotensin converting enzyme (ACE) (Homo sapiens, UniProt P12821)", "sequence (P12821 30-1306, species assumed)": "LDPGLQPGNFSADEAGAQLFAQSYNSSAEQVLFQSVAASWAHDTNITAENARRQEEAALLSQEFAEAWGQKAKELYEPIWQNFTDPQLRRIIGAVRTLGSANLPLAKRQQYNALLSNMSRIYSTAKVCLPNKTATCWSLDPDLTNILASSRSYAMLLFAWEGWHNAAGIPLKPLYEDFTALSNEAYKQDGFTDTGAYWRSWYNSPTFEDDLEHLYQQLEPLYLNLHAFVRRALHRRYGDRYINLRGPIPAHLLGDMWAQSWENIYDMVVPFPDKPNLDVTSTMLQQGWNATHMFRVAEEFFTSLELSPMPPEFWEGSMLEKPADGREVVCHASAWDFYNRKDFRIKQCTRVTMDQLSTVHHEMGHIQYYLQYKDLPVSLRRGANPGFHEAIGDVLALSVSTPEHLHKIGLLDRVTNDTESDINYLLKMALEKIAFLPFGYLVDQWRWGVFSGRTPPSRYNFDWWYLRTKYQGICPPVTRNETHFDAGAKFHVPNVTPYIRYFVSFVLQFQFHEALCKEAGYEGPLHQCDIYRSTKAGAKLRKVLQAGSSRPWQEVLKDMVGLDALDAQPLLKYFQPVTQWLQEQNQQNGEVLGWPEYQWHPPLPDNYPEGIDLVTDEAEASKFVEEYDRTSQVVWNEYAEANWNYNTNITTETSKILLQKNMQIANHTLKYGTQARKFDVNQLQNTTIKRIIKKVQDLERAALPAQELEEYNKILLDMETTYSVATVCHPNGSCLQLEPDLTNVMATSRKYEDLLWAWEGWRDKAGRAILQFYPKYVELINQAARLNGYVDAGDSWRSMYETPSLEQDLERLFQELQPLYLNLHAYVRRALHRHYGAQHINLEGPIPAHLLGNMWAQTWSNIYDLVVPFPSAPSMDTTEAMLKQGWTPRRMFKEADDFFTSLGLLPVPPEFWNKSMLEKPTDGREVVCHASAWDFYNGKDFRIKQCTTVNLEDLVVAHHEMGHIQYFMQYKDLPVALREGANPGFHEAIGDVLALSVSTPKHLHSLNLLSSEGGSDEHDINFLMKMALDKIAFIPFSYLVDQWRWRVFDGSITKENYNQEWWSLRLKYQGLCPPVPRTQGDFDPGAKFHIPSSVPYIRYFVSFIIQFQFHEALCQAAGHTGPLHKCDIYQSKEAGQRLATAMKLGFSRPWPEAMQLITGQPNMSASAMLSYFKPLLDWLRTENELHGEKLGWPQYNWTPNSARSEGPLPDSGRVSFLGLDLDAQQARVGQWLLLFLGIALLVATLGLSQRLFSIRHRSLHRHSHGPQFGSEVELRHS", "assay": "Matrix metalloprotease panel, single concentration", "type": "biochemical", "method": "as §1"}, "[5]": {"biological_target": "T1, MMP-1 (Homo sapiens, UniProt P03956)", "T1 sequence (P03956 100-469)": "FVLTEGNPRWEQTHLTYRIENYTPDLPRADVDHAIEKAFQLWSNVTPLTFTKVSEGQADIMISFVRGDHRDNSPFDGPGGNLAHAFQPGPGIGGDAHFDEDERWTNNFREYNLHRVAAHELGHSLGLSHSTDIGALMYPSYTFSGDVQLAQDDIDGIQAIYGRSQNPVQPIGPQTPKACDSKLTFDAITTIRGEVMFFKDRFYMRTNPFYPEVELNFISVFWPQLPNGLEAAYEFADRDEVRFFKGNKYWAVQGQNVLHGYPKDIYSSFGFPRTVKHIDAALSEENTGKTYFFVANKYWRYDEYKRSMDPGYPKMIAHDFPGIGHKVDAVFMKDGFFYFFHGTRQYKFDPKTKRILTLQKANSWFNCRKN", "assay": "Matrix metalloprotease panel, single concentration", "type": "biochemical", "method": "as §1"}, "[6]": {"biological_target": "MMP-3 (Homo sapiens, UniProt P08254)", "sequence (P08254 100-477, species assumed)": "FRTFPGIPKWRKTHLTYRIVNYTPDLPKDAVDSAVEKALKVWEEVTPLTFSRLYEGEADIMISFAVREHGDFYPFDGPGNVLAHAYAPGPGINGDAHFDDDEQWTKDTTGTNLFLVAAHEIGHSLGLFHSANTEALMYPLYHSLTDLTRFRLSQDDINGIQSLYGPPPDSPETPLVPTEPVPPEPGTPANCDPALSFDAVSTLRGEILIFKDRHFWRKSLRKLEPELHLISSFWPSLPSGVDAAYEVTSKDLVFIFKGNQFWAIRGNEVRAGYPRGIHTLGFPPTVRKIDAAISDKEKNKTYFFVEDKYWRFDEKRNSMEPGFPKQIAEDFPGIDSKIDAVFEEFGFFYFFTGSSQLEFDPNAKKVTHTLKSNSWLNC", "assay": "Matrix metalloprotease panel, single concentration", "type": "biochemical", "method": "as §1"}, "[7]": {"biological_target": "MMP-9 (Homo sapiens, UniProt P14780)", "sequence (P14780 94-707, species assumed)": "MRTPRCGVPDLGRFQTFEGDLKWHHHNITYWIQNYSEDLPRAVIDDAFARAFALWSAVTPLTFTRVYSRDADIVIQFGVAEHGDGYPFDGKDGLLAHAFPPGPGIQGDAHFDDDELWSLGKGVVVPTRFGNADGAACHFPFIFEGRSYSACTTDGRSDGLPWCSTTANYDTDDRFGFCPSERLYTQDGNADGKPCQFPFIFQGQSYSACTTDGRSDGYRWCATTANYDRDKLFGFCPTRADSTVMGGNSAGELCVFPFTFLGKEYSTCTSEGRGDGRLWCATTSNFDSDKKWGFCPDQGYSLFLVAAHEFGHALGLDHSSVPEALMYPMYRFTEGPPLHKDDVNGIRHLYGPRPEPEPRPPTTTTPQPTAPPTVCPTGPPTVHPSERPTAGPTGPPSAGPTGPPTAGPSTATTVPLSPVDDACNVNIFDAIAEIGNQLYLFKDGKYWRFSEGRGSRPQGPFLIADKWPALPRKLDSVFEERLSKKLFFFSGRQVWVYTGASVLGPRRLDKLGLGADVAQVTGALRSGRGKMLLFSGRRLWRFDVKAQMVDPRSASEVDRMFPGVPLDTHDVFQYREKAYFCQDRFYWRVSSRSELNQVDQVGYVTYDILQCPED", "assay": "Matrix metalloprotease panel, single concentration", "type": "biochemical", "method": "as §1"}, "[8]": {"biological_target": "T2, MMP-7 (Homo sapiens, UniProt P09237)", "T2 sequence (P09237 95-267)": "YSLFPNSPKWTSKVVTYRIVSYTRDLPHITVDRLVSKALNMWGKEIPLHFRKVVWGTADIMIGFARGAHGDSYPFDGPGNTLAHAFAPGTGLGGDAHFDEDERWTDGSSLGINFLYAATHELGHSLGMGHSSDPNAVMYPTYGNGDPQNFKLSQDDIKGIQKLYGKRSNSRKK", "assay": "Matrix metalloprotease panel, single concentration", "type": "biochemical", "method": "as §1"}, "[9]": {"biological_target": "T3, MMP-2 (Homo sapiens, UniProt P08253)", "T3 sequence (P08253 110-660)": "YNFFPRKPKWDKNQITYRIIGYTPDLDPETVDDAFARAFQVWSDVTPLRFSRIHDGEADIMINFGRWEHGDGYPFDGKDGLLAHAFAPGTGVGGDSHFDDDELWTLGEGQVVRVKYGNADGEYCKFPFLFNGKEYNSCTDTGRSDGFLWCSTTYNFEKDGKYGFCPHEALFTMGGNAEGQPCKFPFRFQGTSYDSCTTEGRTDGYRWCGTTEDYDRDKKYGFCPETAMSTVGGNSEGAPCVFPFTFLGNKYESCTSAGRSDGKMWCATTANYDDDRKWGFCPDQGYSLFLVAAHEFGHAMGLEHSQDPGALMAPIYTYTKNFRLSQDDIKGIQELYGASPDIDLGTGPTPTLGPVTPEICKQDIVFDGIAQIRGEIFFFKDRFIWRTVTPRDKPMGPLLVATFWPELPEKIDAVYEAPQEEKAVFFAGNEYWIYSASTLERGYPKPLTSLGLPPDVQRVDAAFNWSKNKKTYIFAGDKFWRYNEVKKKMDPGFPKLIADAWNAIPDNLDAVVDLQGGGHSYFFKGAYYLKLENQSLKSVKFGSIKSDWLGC", "assay": "Matrix metalloprotease panel, single concentration", "type": "biochemical", "method": "as §1"}, "[10]": {"biological_target": "MMP-13 (Homo sapiens, UniProt P45452)", "assay": "Matrix metalloprotease panel, single concentration", "type": "biochemical", "method": "as §1"}, "[11]": {"biological_target": "MMP-14 (Homo sapiens, UniProt P50281)", "assay": "Matrix metalloprotease panel, single concentration", "type": "biochemical", "method": "as §1"}, "[12]": {"biological_target": "MMP-10 (Homo sapiens, UniProt P09238)", "sequence (P09238 99-476, species assumed)": "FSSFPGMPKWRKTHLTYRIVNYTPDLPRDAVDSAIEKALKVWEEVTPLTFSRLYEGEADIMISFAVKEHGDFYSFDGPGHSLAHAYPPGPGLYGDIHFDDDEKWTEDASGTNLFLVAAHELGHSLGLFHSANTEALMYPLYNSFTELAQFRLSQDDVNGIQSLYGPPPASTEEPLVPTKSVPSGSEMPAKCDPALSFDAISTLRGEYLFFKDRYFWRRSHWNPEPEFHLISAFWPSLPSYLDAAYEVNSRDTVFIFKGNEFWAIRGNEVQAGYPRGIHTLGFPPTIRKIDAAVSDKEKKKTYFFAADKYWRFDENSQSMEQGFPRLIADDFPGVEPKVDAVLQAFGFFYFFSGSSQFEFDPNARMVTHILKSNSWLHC", "assay": "Matrix metalloprotease panel, single concentration", "type": "biochemical", "method": "as §1"}},
  "data": [
    {"smiles": "O=C(CC1c2ccccc2S(=O)(=O)N1c1ccccc1)NO", "note": "(stereo not shown) [IX-001]", "values": [
      {"measurement": "Av. HDAC Inhibition, % @100", "setting": "[1]", "value": 10, "unit": "%@100"},
      {"measurement": "inhibition at 5 µM", "setting": "[2]", "value": 30, "unit": "%"},
      {"measurement": "inhibition at 5 µM", "setting": "[3]", "value": 56, "unit": "%"},
      {"measurement": "inhibition at 5 µM", "setting": "[4]", "value": 6, "unit": "%"},
      {"measurement": "inhibition at 5 µM", "setting": "[5]", "value": 0, "unit": "%"},
      {"measurement": "inhibition at 5 µM", "setting": "[6]", "value": 1, "unit": "%"},
      {"measurement": "inhibition at 5 µM", "setting": "[7]", "value": 19, "unit": "%"},
      {"measurement": "inhibition at 5 µM", "setting": "[8]", "value": 0, "unit": "%"},
      {"measurement": "inhibition at 5 µM", "setting": "[9]", "value": 19, "unit": "%"},
      {"measurement": "inhibition at 5 µM", "setting": "[10]", "value": 24, "unit": "%"},
      {"measurement": "inhibition at 5 µM", "setting": "[11]", "value": 2, "unit": "%"},
      {"measurement": "inhibition at 5 µM", "setting": "[12]", "value": 0, "unit": "%"}
    ]},
    {"smiles": "CC#CCOc1ccc(N2C(CC(=O)NO)c3ccccc3S2(=O)=O)cc1", "note": "(stereo not shown) [IX-045]", "values": [
      {"measurement": "Av. HDAC Inhibition, % @100", "setting": "[1]", "value": 38, "unit": "%@100"},
      {"measurement": "inhibition at 5 µM", "setting": "[2]", "value": 21, "unit": "%"},
      {"measurement": "inhibition at 5 µM", "setting": "[3]", "value": 37, "unit": "%"},
      {"measurement": "inhibition at 5 µM", "setting": "[4]", "value": -8, "unit": "%"},
      {"measurement": "inhibition at 5 µM", "setting": "[5]", "value": -4, "unit": "%"},
      {"measurement": "inhibition at 5 µM", "setting": "[6]", "value": 11, "unit": "%"},
      {"measurement": "inhibition at 5 µM", "setting": "[7]", "value": -2, "unit": "%"},
      {"measurement": "inhibition at 5 µM", "setting": "[8]", "value": -5, "unit": "%"},
      {"measurement": "inhibition at 5 µM", "setting": "[9]", "value": 10, "unit": "%"},
      {"measurement": "inhibition at 5 µM", "setting": "[10]", "value": -12, "unit": "%"},
      {"measurement": "inhibition at 5 µM", "setting": "[11]", "value": 0, "unit": "%"},
      {"measurement": "inhibition at 5 µM", "setting": "[12]", "value": 6, "unit": "%"}
    ]},
    {"smiles": "Cc1cc(COc2ccc(N3C(CC(=O)NO)c4ccccc4S3(=O)=O)cc2)c2ccccc2n1", "note": "(stereo not shown) [IX-048]", "values": [
      {"measurement": "Av. HDAC Inhibition, % @100", "setting": "[1]", "value": 19, "unit": "%@100"},
      {"measurement": "melting point", "value": "195 to 197", "unit": "°C"},
      {"measurement": "inhibition at 5 µM", "setting": "[2]", "value": 13, "unit": "%"},
      {"measurement": "inhibition at 5 µM", "setting": "[3]", "value": 49, "unit": "%"},
      {"measurement": "inhibition at 5 µM", "setting": "[4]", "value": -4, "unit": "%"},
      {"measurement": "inhibition at 5 µM", "setting": "[5]", "value": 6, "unit": "%"},
      {"measurement": "inhibition at 5 µM", "setting": "[6]", "value": 34, "unit": "%"},
      {"measurement": "inhibition at 5 µM", "setting": "[7]", "value": -8, "unit": "%"},
      {"measurement": "inhibition at 5 µM", "setting": "[8]", "value": 31, "unit": "%"},
      {"measurement": "inhibition at 5 µM", "setting": "[9]", "value": -3, "unit": "%"},
      {"measurement": "inhibition at 5 µM", "setting": "[10]", "value": -10, "unit": "%"},
      {"measurement": "inhibition at 5 µM", "setting": "[11]", "value": 4, "unit": "%"},
      {"measurement": "inhibition at 5 µM", "setting": "[12]", "value": 9, "unit": "%"}
    ]}
  ]
}
